# Assay results as given in paper PMC3880807 (ACS chemical biology, 2013).
# Molecular target: Src (Gallus gallus, UniProt P00523, Y527F)
# Assay: In vitro activity assay with Src phospho-isoforms
# Type: biochemical
# Conditions: npY416-Src vs pY416-Src
smiles,measurement,value
"CNC(=O)c1cc(Oc2ccc(NC(=O)Nc3cc(C(C)(C)C)nn3-c3ccc4ncccc4c3)c(F)c2)ccn1 [compound 1, Rebastinib]","Fold-difference in Ki, preference for npY416-Src over pY416-Src",~ 11 fold
